# How the values were obtained:
# [1] = system: mouse sarcoma cell line MCA205; assay: B3Z SL8-specific T-cell activation assay, MCA205; type: cell-based; settings: MCA205, Globin-intron-SL8
# Protocol: B3Z SL8-specific T-cell activation after co-culture with (A) human melanoma A375, human lung carcinoma A549 or normal human lung fibroblast MRC5 cell lines, all transiently expressing the intron-derived SL8 peptide and the H2-K^b molecules and treated upstream with 2,5 μM or 6,25 μM isoginkgetin for 18 hours; or with (B) mouse sarcoma MCA205 or mouse melanoma B16F10 cell lines both transiently expressing the intron-derived SL8 peptide and treated upstream with 6,25 μM, 15 μM or 25 μM isoginkgetin for 18 hours. […]
# (§1) Data are given as mean ±SEM. *P<0.05, **P<0.01, ***P<0.001 (unpaired student t test). […] Tumor size was assessed every 3 to 4 days until reaching the established ethical endpoints. […]
# MCA205 and B16F10 mouse cell lines are transfected with the plasmid YFP-Globin-SL8-intron or with the PCDNA3 empty plasmid (negative control) with the transfection reagent jetPRIME (Ozyme) or GeneJuice (Millipore) respectively according to each manufacturer protocol. […] Finally, the β-galactosidase activity is measured using the FLUOstar OPTIMA (BMG LABTECH Gmbh, Offenburg, Germany). Results are expressed as mean ±SEM. *P<0.05, **P<0.01, ***P<0.001 (unpaired student t test).
# B16F10 WT tumor = assay: Tumor challenge, B16F10 WT in immunocompetent C57BL/6 mice; type: in vivo, mouse; settings: 18 mg/kg intraperitoneally, days 5, 10 and 15 (FIG. 11D)
# Protocol: (§2) (A) Experimental settings. Growth of (B) sarcoma MCA205 or (C) melanoma B16F10 cells that both stably express the globin-SL8-intron construct or (D) MCA205 Wild Type (WT) or (E) B16F10 WT cells that were subcutaneously inoculated on the flank of immunocompetent C57BL/6 mice injected intraperitoneally with 12 mg/kg or 18 mg/kg of isoginkgetin at days 5, 10 and 15 after inoculation. Tumor size was assessed every 3 to 4 days until reaching the established ethical endpoints. Each line represents the tumor size in area (mm^2) of 6 mice in each group. Size in area (mm^2) of (F) MCA205 globin-SL8-intron, (G) B16F10 globin-SL8-intron, (H) MCA205 WT or (I) B16F10 WT tumors subcutaneously inoculated on the flank of immunodeficient Nu/Nu Nude mice injected intraperitoneally with 18 mg/kg of isoginkgetin at days 5, 10 and 15 after inoculation. Data are presented at the day before the endpoints are reached.
# as §1
# The SL8 peptide has been widely shown to be highly immunogenic in vivo. […] At days 5, 10 and 15 after tumor inoculation, the mice were injected intraperitoneally with a define dose of isoginkgetin, and the tumor growth was monitored (FIG. 9A). […]
# [2] = system: B16F10 globin-SL8-intron (B16F10 GI) tumor; assay: Tumor challenge, B16F10 globin-SL8-intron in immunocompetent C57BL/6 mice; type: in vivo, mouse; settings: 18 mg/kg intraperitoneally, days 5, 10 and 15
# Protocol: as §2, §1
# C57B1/6J female mice are obtained from Harlan. […] Area of the tumor is recorded every 3 to 4 days until day 27. […] Results are expressed as mean ±SEM. *p<0.05, **P<0.01, ***P<0.001 (ANOVA with Tukey's multiple comparison test comparing all groups).
# [3] = system: H2-K^b molecules at the cell surface of B16F10 cells; assay: Flow cytometry of H2-K^b expression, B16F10; type: cell-based, mouse
# Description: Flow cytometry analyses of H2-K^b expression on MCA205 and B16F10 cells treated with (A) isoginkgetin. Flow cytometry analyses of transiently expressed H2-K^b expression on A375, A549 and MRC5 cells treated with (B) isoginkgetin.
smiles,measurement,setting,value
COc1ccc(-c2cc(=O)c3c(OC)cc(OP(=O)([O-])[O-])c(-c4cc(-c5cc(=O)c6c(OC)cc(OP(=O)([O-])[O-])cc6o5)ccc4OC)c3o2)cc1.[Na+].[Na+].[Na+].[Na+] [IM2P2],intron-SL8-derived antigen presentation (B3Z activation),[1]; 15 μM or 35 μM,decreases its presentation
same,PTPs-dependent (intron-derived SL8) antigen presentation (B3Z activation),"[1]; 15 μM, 25 μM or 35 μM",does not increase the presentation
same,tumor growth,B16F10 WT tumor,did not impact tumor growth
same,tumor growth,[2],had no effect on growth
same,expression of the H2-K^b molecules at the cell surface,[3],is not affected

# Reference: US11110105B2, “Compounds, composition and uses thereof for treating cancer” (INSTITUT GUSTAVE ROUSSY, priority 2017, dated 2021)
